Test results reported in patent publication US11104648B2, “Pyrazole derivative” (Zhejiang Research Institute of Chemical Industry Co., Ltd., priority 2018, dated 2021).
Read-outs that look alike come from different tables or passages of the source.

Tests used:
Format in all cases: in vivo
[1] = system: Tetranychus cinnabarinus Nymphs; experiment: Activity assay of Tetranychus cinnabarinus nymphs (spray on broad bean leaves); conditions: 48 h; for pest or weed control at 2 µg/mL: concentration 2 mg/L; for pest or weed control at 2 µg/mL / pest or weed control at 2.5 µg/mL: read-out: nymph-killing activity; for pest or weed control at 0.5 µg/mL: nymphs, concentration 0.5 mg/L, parallel determination, read-out: Death rate (%)
How it was run: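 Mortality, judged as no response to gentle touch, was scored 48 h after spraying Tetranychus cinnabarinus nymphs on broad bean leaves (eggs from females removed after 24 h). Test solutions: DMF-dissolved compound, ≤10% DMF, in 1‰ Tween 80; 26±2° C., 70%–80% RH, 16 h light; triplicate, blank control.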

[2] = system: adult Tetranychus cinnabarinus; experiment: Activity assay of adult Tetranychus cinnabarinus (whole-plant spray on bean seedlings); conditions: 48 h; for pest or weed control at 1.25 µg/mL: concentration 1.25 mg/L
How it was run: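 Whole plants sprayed after adult mite inoculation and initial census, using compound dissolved in DMF and made up with 1‰ Tween 80 water (DMF not above 10%). Mortality derived from survivor counts at 48 h after treatment. Each treatment run in triplicate.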

[3] = system: Eggs of Tetranychus Cinnabarinus; experiment: Activity assay of eggs of Tetranychus cinnabarinus (spray method, ovicidal); conditions: Tetranychus cinnabarinus; for pest or weed control at 2 µg/mL: concentration 2 mg/L
How it was run: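 Ovicidal spray test: compound dissolved in DMF, diluted with 1‰ Tween 80 (DMF ≤10%), sprayed on eggs laid during 24 h by females on broad bean leaves. Culture at 26±2° C, 70–80% RH, 16 h photoperiod; non-hatched eggs scored as dead when blank control hatched; three repeats.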

[4] = read-out: adult mite-killing activity
[5] = concentration 2.5 mg/L, read-out: adult mite-killing activity
[6] = spray, read-out: ovicidal activity
[7] = concentration 5 mg/L, spray, non-incubated eggs counted as dead, read-out: ovicidal activity
[8] = adult mites, parallel determination, read-out: Death rate (%)
[9] = eggs, parallel determination, read-out: Death rate (%)

SMILES	pest or weed control at 2.5 µg/mL ([1]; concentration 2.5 mg/L)	pest or weed control at 2.5 µg/mL [2, 5]	pest or weed control at 5 µg/mL [3, 7]	further results
CCn1nc(C)c(C)c1/C(OC(C)OC(C)=O)=C(\C#N)c1ccc(C(C)(C)C)cc1 (stereo not drawn) [Compound 401]	≥ 95%	≥ 90%	≥ 90%	pest or weed control at 2 µg/mL [1]: ≥ 90%; pest or weed control at 1.25 µg/mL [2, 4]: ≥ 90%; pest or weed control at 2 µg/mL [3, 6]: ≥ 90%
CCn1nc(C)c(Cl)c1/C(OC(C)OC(=O)C(F)(F)F)=C(\C#N)c1ccc(C(C)(C)C)cc1 (stereo not drawn) [Compound 338]	≥ 95%	≥ 90%	≥ 90%	–
CCC(C)(C)C(=O)OCO/C(=C(/C#N)c1ccc(C(C)(C)C)cc1)c1cc(C)nn1C [Compound 16]	≥ 95%	≥ 90%	≥ 90%	–
CCn1nc(C)cc1/C(OC(C)OC(=O)OC)=C(\C#N)c1ccc(C(C)(C)C)cc1 (stereo not drawn) [Compound 579]	≥ 95%	≥ 90%	≥ 90%	pest or weed control at 2 µg/mL [1]: ≥ 90%; pest or weed control at 1.25 µg/mL [2, 4]: ≥ 90%; pest or weed control at 2 µg/mL [3, 6]: ≥ 90%
CCSC(=O)OC(C)O/C(=C(/C#N)c1ccc(C(C)(C)C)cc1)c1cc(C)nn1CC (stereo not drawn) [Compound 608]	≥ 95%	≥ 90%	≥ 90%	–
CC(=O)OC(C)O/C(=C(/C#N)c1ccc(C(C)(C)C)cc1)c1cc(C)nn1C (stereo not drawn) [Compound 26]	≥ 95%	≥ 90%	≥ 90%	–
CCC(=O)OCO/C(=C(/C#N)c1ccc(C(C)(C)C)cc1)c1c(C)c(C)nn1CC [Compound 377]	≥ 95%	≥ 90%	≥ 90%	–
COC(=O)OC(C)O/C(=C(/C#N)c1ccc(C(C)(C)C)cc1)c1cc(C)nn1C (stereo not drawn) [Compound 483]	≥ 95%	≥ 90%	≥ 90%	–
CC(=O)OCO/C(=C(/C#N)c1ccc(C(C)(C)C)cc1)c1c(Cl)c(C)nn1C [Compound 76]	≥ 95%	≥ 90%	≥ 90%	–
CCn1nc(C)cc1/C(OC(C)OC(=O)CSC)=C(\C#N)c1ccc(C(C)(C)C)cc1 (stereo not drawn) [Compound 260]	≥ 95%	≥ 90%	≥ 90%	–
COC(=O)COC(=O)OCO/C(=C(/C#N)c1ccc(C(C)(C)C)cc1)c1cc(C)nn1C [Compound 477]	≥ 95%	≥ 90%	≥ 90%	–
CCn1nc(C)c(Cl)c1/C(OCOC(=O)C(C)(C)C)=C(\C#N)c1ccc(C(C)(C)C)cc1 [Compound 305]	≥ 95%	≥ 90%	≥ 90%	pest or weed control at 2 µg/mL [1]: ≥ 90%; pest or weed control at 1.25 µg/mL [2, 4]: ≥ 90%; pest or weed control at 2 µg/mL [3, 6]: ≥ 90%
CCn1nc(C)cc1/C(OCOC(=O)COC)=C(\C#N)c1ccc(C(C)(C)C)cc1 [Compound 233]	≥ 95%	≥ 90%	≥ 90%	–
CCC(C)(C)C(=O)OCO/C(=C(/C#N)c1ccc(C(C)(C)C)cc1)c1c(C)c(C)nn1C [Compound 166]	≥ 95%	≥ 90%	≥ 90%	–
Cc1cc(/C(OC(C)OC(=O)C2CC2)=C(\C#N)c2ccc(C(C)(C)C)cc2)n(C)n1 (stereo not drawn) [Compound 34]	≥ 95%	≥ 90%	≥ 90%	–
Cc1nn(C)c(/C(OC(C)OC(=O)CF)=C(\C#N)c2ccc(C(C)(C)C)cc2)c1C (stereo not drawn) [Compound 187]	–	–	–	pest or weed control at 2.5 µg/mL [1]: ≥ 95%; pest or weed control at 2.5 µg/mL [2, 4]: ≥ 90%; pest or weed control at 5 µg/mL ([3]; read-out: ovicidal activity): ≥ 90%
CCn1nc(C)c(Cl)c1/C(OCOC(=O)C(C)(C)CC)=C(\C#N)c1ccc(C(C)(C)C)cc1 [Compound 316]	≥ 95%	≥ 90%	≥ 90%	–
Cc1nn(C)c(/C(OCOC(=O)CC(C)C)=C(\C#N)c2ccc(C(C)(C)C)cc2)c1C [Compound 157]	≥ 95%	≥ 90%	≥ 90%	–
C=CC(=O)OC(C)O/C(=C(/C#N)c1ccc(C(C)(C)C)cc1)c1c(Cl)c(C)nn1CC (stereo not drawn) [Compound 342]	≥ 95%	≥ 90%	≥ 90%	–

SMILES	pest or weed control at 2.5 µg/mL ([1]; concentration 2.5 mg/L)	pest or weed control at 2.5 µg/mL [2, 5]	pest or weed control at 5 µg/mL [3, 7]	further results
C=CC(=O)OC(C)O/C(=C(/C#N)c1ccc(C(C)(C)C)cc1)c1c(Cl)c(C)nn1C (stereo not drawn) [Compound 117]	≥ 95%	≥ 90%	≥ 90%	–
Cc1cc(/C(OC(C)OC(=O)C2CCCCC2)=C(\C#N)c2ccc(C(C)(C)C)cc2)n(C)n1 (stereo not drawn) [Compound 36]	≥ 95%	≥ 90%	≥ 90%	–
Cc1nn(C)c(/C(OCOC(=O)C2CC2)=C(\C#N)c2ccc(C(C)(C)C)cc2)c1Cl [Compound 84]	≥ 95%	≥ 90%	≥ 90%	–
C=CC(=O)OCO/C(=C(/C#N)c1ccc(C(C)(C)C)cc1)c1c(C)c(C)nn1C [Compound 167]	≥ 95%	≥ 90%	≥ 90%	–
CCn1nc(C)c(C)c1/C(OCOC(=O)CF)=C(\C#N)c1ccc(C(C)(C)C)cc1 [Compound 387]	–	–	–	pest or weed control at 2.5 µg/mL [1]: ≥ 95%; pest or weed control at 2.5 µg/mL [2, 4]: ≥ 90%; pest or weed control at 5 µg/mL ([3]; read-out: ovicidal activity): ≥ 90%
CCCC(=O)OC(C)O/C(=C(/C#N)c1ccc(C(C)(C)C)cc1)c1cc(C)nn1C (stereo not drawn) [Compound 28]	≥ 95%	≥ 90%	≥ 90%	–
CCn1nc(C)c(Cl)c1/C(OC(C)OC(=O)OC)=C(\C#N)c1ccc(C(C)(C)C)cc1 (stereo not drawn) [Compound 771]	≥ 95%	≥ 90%	≥ 90%	pest or weed control at 2 µg/mL [1]: ≥ 90%; pest or weed control at 0.5 µg/mL [1]: 95%; pest or weed control at 1.25 µg/mL [2, 8]: 100%; pest or weed control at 1.25 µg/mL [2, 4]: ≥ 90%; pest or weed control at 2 µg/mL [3, 6]: ≥ 90%; pest or weed control at 2 µg/mL [3, 9]: 100%
CCn1nc(C)c(C)c1/C(OC(C)OC(=O)C(C)(C)CC)=C(\C#N)c1ccc(C(C)(C)C)cc1 (stereo not drawn) [Compound 416]	≥ 95%	≥ 90%	≥ 90%	–
C=CCOC(=O)OCO/C(=C(/C#N)c1ccc(C(C)(C)C)cc1)c1cc(C)nn1C [Compound 474]	≥ 95%	≥ 90%	≥ 90%	–
Cc1cc(/C(OC(C)OC(=O)OCCCl)=C(\C#N)c2ccc(C(C)(C)C)cc2)n(C)n1 (stereo not drawn) [Compound 494]	≥ 95%	≥ 90%	≥ 90%	–
CSCC(=O)OCO/C(=C(/C#N)c1ccc(C(C)(C)C)cc1)c1c(Cl)c(C)nn1C [Compound 85]	≥ 95%	≥ 90%	≥ 90%	–
CCC(=O)OC(C)O/C(=C(/C#N)c1ccc(C(C)(C)C)cc1)c1c(C)c(C)nn1CC (stereo not drawn) [Compound 402]	≥ 95%	≥ 90%	≥ 90%	pest or weed control at 2 µg/mL [1]: ≥ 90%; pest or weed control at 1.25 µg/mL [2, 4]: ≥ 90%; pest or weed control at 2 µg/mL [3, 6]: ≥ 90%
CC(=O)OC(C)O/C(=C(/C#N)c1ccc(C(C)(C)C)cc1)c1c(C)c(C)nn1C (stereo not drawn) [Compound 176]	≥ 95%	≥ 90%	≥ 90%	–
Cc1nn(C)c(/C(OC(C)OC(=O)CF)=C(\C#N)c2ccc(C(C)(C)C)cc2)c1Cl (stereo not drawn) [Compound 112]	–	–	–	pest or weed control at 2.5 µg/mL [1]: ≥ 95%; pest or weed control at 2.5 µg/mL [2, 4]: ≥ 90%; pest or weed control at 5 µg/mL ([3]; read-out: ovicidal activity): ≥ 90%
C=CC(=O)OC(C)O/C(=C(/C#N)c1ccc(C(C)(C)C)cc1)c1cc(C)nn1C (stereo not drawn) [Compound 42]	≥ 95%	≥ 90%	≥ 90%	–
CCn1nc(C)cc1/C(OC(C)OC(=O)C(C)C)=C(\C#N)c1ccc(C(C)(C)C)cc1 (stereo not drawn) [Compound 254]	≥ 95%	≥ 90%	≥ 90%	pest or weed control at 2 µg/mL [1]: ≥ 90%; pest or weed control at 0.5 µg/mL [1]: 96%; pest or weed control at 1.25 µg/mL [2, 8]: 97%; pest or weed control at 1.25 µg/mL [2, 4]: ≥ 90%; pest or weed control at 2 µg/mL [3, 6]: ≥ 90%; pest or weed control at 2 µg/mL [3, 9]: 99%
CC(=O)OC(C)O/C(=C(/C#N)c1ccc(C(C)(C)C)cc1)c1c(Cl)c(C)nn1C (stereo not drawn) [Compound 101]	≥ 95%	≥ 90%	≥ 90%	–
Cc1nn(C)c(/C(OCOC(=O)C(C)C)=C(\C#N)c2ccc(C(C)(C)C)cc2)c1C [Compound 154]	≥ 95%	≥ 90%	≥ 90%	–
